Key:
[1] = biological target: 7 nicotinic acetylcholine receptor (Rattus norvegicus, UniProt Q05941); assay type: binding; conditions: PC-12 cells; FIG. 8
[2] = tested on: differentiated PC-12 cells; assay: MTT cell viability (neuroprotection) assay after neurotrophic factor withdrawal; assay type: cell-based; design: neuroprotective action after pretreatment with mecamylamine: dose or concentration left out as unconfirmed; conditions: for potency in neuroprotection relative to choline and its ethyl analogs (in words): effects at lowest dose 0.1 mM not much reduced from 10 mM
Procedure: Cell Culture: PC12 cells were maintained in 150-cm^2 tissue-culture flasks in Dulbecco's Modified Eagles medium containing 7% horse serum, 7% fetal calf serum, 1% non-essential amino-acids and 1% streptomycin (DMEM). The cells were incubated at 37 C in a 5% CO2-enriched, humidified atmosphere. To attain maximum differentiation, the cells were maintained in DMEM.NGF medium for 7 days, with the medium being changed every 2 or 3 days.
Assay for Cell viability. Cells were dissociated by trituration and plated at 1×10^4 cells per well on poly-L-lysine coated 96 well plates containing DMEM.NGF media. Next, the differentiated cells were incubated with the test drug at different concentrations for the specified period of time. Cell viability (cytotoxicity) was determined using the Cell Titer 96 non-radioactive cell proliferation/cytotoxicity assay kit (Promega), which is based on the cellular conversion of a 3-(4,5-dimethylthiazol-2-yl)-2,5-diphenyltetrazolium bromide (MTT) into a formazan product which can be detected spectrophotometrically. After deprivation of cells from NGF and serum, the medium was aspirated and 15 l of dye solution dissolved in DMEM was added. After an additional 4 hr incubation at 37 C, 100 l of solubilization/stop solution was added and the absorbance of solubilized MTT formazan products was measured at 570 nm.
Differentiated PC-12 cells were deprived of neurotrophic factors for 24 hr to promote cytotoxicity. Cell viability was measured by the MTT assay under control conditions, and in cultures in which a choline analog was introduced into the medium at the time of neurotrophic factor withdrawal. […] Choline and its mono-, di-, and tri-ethyl analogs produced a concentration dependent and intermediate level of neuroprotection improving cell viability by up to 40% of baseline.

[3] = tested on: differentiated PC-12 cells; assay: Cytoprotective effect (% Protection) with exposure 24 hours prior to growth factor withdrawal; assay type: cell-based; conditions: exposure 24 hours prior to removal of NGF and serum; FIGS. 11, 13A and B
Procedure: The above-described differentiated PC-12 cells were exposed to the indicated concentrations (see FIGS. 13A and B) of the FIG. 12 choline analogs 24 hours prior to growth factor withdrawal (removal of nerve growth factor, and changing from serum-containing to serum-free medium). % Protection values were calculated as the ratio of ELISA-based absorbance values for [protected cells−deprived cells (no analog):control (non-deprived) cells−deprived cells]×100. Each data point in FIG. 13 represents data obtained from two separate assays each performed with 5-8 replicates per point.

Sequence of 7 nicotinic acetylcholine receptor (Q05941 23-502): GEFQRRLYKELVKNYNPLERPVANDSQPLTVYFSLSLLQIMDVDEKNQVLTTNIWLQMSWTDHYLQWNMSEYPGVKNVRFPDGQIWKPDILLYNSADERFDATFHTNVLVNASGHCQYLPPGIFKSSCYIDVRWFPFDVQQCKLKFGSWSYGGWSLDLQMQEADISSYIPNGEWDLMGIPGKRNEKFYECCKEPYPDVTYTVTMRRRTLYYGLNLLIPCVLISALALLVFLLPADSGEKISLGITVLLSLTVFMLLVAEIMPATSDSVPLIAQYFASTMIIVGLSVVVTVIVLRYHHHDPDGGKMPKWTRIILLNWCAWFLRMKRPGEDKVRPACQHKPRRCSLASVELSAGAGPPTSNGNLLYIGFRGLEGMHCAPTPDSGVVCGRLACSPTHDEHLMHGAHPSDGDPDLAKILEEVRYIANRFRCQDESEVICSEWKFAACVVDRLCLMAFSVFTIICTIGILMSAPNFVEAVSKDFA

C[N+]1(CCO)CCCC1 [pyrrolidinecholine]
affinity for the [125I]-bungarotoxin site relative to choline (in words) [1]: slightly more potent affinity | displacement of cell surface [125I]-bungarotoxin binding (in words) [1]: fully displaced | neuroprotective action after pretreatment with MLA ([2]; MLA (10 nM) pretreatment, FIGS. 9 and 10): blocked | potency in neuroprotection relative to choline and its ethyl analogs (in words) [2]: more potent | neuroprotective action after pretreatment with mecamylamine ([2]; mecamylamine pretreatment, FIGS. 9 and 10): blocked

C[N+](C)(CCO)Cc1ccccc1.[Br-] [benzylcholine]
displacement of cell surface [125I]-bungarotoxin binding (in words) [1]: failed to significantly interact | effect on cell viability (in words) ([2]; PC-12 cells deprived of neurotrophic factors for 24 hr, FIG. 5): did not affect cell viability

CC(=O)OCC[N+]1(C)CCCC1 [acetylpyrrolidinecholine]
potency in neuroprotection relative to choline and its ethyl analogs (in words) [2]: more potent

CN1CCCC1c1cccnc1 (stereo not drawn) [nicotine]
cytoprotective effect, % Protection concentration-effect curve (in words) [3]: biphasic

From patent US7786147B2, “Analogs of choline for neuroprotection and cognitive enhancement in neurodegenerative disorders” (Medical College of Georgia Research Institute., priority 2001, dated 2010)
